The test addresses T1, Nav1.7 (or SCN9A) channel (Homo sapiens, UniProt Q15858).
T1 construct: expressed in transfected cells
Nature of the test: Nav1.7 PatchXpress automated whole-cell electrophysiology in HEK cells expressing hSCN9A. It is filed as cell-based. The following applies: estimated IC50 from single point data, PatchXpress assay, held at V1/2 of inactivation, read-out: Nav1.7 EIC50. As to the method: The ability of the compounds of formula (I) to block the Nav1.7 (or SCN9A) channel were measured using the assay described below.
Human Embryonic Kidney (HEK) cells were transfected with an hSCN9A construct using lipofectamine reagent (Invitrogen), using standard techniques. Cells stably expressing the hSCN9A constructs were identified by their resistance to G-418 (400 μg/ml). Clones were screened for expression using the whole-cell voltage-clamp technique.
HEK cells stably transfected with hSCN9A were maintained in DMEM medium supplemented with 10% heat-inactivated fetal bovine serum and 400 μg/ml G-418 in an incubator at 37° C. with a humidified atmosphere of 10% CO2. For HTS, cells were harvested from flasks by trypsinization and replated in an appropriate multi-well plate (typically 96 or 384 wells/plate) such that confluence would be achieved within 24 hours of plating. For electrophysiological studies, cells were removed from the culture flask by brief trypsinization and re-plated at low density onto glass cover slips. Cells were typically used for electrophysiological experiments within 24 to 72 hours after plating.
Cover slips containing HEK cells expressing hSCN9A were placed in a bath on the stage of an inverted microscope and perfused (approximately 1 ml/minutes) with extracellular solution of the following composition: 138 mM NaCl, 2 mM CaCl2, 5.4 mM KCl, 1 mM MgCl2, 10 mM glucose, and 10 mM HEPES, pH 7.4, with NaOH. […] The osmolarity of the extracellular and intracellular solutions was 300 mOsm/kg and 295 mOsm/kg, respectively. All recordings were made at room temperature (22-24° C.) using AXOPATCH 200B amplifiers and PCLAMP software (Axon Instruments, Burlingame, Calif.).
hSCN9A currents in HEK cells were measured using the whole-cell configuration of the patch-clamp technique (Hamill et al., 1981). Uncompensated series resistance was typically 2 to 5 mega ohms and >85% series resistance compensation was routinely achieved. As a result, voltage errors were negligible and no correction was applied. Current records were acquired at 20 to 50 KHz and filtered at 5 to 10 KHz.
HEK cells stably transfected with hSCN9A were viewed under Hoffman contrast optics and placed in front of an array of flow pipes emitting either control or compound-containing extracellular solutions. All compounds were dissolved in dimethyl sulfoxide to make 10 mM stock solutions, which were then diluted into extracellular solution to attain the final concentrations desired. […] The voltage-dependence of inactivation was determined by applying a series of depolarizing prepulses (8 sec long in 10 mV increments) from a negative holding potential. The voltage was then immediately stepped to 0 mV to assess the magnitude of the sodium current. Currents elicited at 0 mV were plotted as a function of prepulse potential to allow estimation of the voltage at which 50% of the channels were inactivated (midpoint of inactivation or V1/2). Compounds were tested for their ability to inhibit hSCN9A sodium channels by activating the channel with a 20 msec voltage step to 0 mV following an 8 second conditioning prepulse to the empirically determined V1/2. Compound effect (% inhibition) was determined by difference in current amplitude before and after application of test compounds. For ease of comparison, “estimated IC-50” (EIC50) values were calculated from single point electrophysiology data by the following equation, (tested concentration, uM)×(100-% inhibition/% inhibition). Inhibition values<20% and >80% were excluded from the calculation.
Electrophysiological assays were conducted with PatchXpress 7000 hardware and associated software (Molecular Devices Corp). All assay buffers and solutions were identical to those used in conventional whole-cell voltage clamp experiments described above. hSCN9A cells were grown as above to 50%-80% confluency and harvested by trypsinization. […]
T1 sequence (Q15858 whole entry): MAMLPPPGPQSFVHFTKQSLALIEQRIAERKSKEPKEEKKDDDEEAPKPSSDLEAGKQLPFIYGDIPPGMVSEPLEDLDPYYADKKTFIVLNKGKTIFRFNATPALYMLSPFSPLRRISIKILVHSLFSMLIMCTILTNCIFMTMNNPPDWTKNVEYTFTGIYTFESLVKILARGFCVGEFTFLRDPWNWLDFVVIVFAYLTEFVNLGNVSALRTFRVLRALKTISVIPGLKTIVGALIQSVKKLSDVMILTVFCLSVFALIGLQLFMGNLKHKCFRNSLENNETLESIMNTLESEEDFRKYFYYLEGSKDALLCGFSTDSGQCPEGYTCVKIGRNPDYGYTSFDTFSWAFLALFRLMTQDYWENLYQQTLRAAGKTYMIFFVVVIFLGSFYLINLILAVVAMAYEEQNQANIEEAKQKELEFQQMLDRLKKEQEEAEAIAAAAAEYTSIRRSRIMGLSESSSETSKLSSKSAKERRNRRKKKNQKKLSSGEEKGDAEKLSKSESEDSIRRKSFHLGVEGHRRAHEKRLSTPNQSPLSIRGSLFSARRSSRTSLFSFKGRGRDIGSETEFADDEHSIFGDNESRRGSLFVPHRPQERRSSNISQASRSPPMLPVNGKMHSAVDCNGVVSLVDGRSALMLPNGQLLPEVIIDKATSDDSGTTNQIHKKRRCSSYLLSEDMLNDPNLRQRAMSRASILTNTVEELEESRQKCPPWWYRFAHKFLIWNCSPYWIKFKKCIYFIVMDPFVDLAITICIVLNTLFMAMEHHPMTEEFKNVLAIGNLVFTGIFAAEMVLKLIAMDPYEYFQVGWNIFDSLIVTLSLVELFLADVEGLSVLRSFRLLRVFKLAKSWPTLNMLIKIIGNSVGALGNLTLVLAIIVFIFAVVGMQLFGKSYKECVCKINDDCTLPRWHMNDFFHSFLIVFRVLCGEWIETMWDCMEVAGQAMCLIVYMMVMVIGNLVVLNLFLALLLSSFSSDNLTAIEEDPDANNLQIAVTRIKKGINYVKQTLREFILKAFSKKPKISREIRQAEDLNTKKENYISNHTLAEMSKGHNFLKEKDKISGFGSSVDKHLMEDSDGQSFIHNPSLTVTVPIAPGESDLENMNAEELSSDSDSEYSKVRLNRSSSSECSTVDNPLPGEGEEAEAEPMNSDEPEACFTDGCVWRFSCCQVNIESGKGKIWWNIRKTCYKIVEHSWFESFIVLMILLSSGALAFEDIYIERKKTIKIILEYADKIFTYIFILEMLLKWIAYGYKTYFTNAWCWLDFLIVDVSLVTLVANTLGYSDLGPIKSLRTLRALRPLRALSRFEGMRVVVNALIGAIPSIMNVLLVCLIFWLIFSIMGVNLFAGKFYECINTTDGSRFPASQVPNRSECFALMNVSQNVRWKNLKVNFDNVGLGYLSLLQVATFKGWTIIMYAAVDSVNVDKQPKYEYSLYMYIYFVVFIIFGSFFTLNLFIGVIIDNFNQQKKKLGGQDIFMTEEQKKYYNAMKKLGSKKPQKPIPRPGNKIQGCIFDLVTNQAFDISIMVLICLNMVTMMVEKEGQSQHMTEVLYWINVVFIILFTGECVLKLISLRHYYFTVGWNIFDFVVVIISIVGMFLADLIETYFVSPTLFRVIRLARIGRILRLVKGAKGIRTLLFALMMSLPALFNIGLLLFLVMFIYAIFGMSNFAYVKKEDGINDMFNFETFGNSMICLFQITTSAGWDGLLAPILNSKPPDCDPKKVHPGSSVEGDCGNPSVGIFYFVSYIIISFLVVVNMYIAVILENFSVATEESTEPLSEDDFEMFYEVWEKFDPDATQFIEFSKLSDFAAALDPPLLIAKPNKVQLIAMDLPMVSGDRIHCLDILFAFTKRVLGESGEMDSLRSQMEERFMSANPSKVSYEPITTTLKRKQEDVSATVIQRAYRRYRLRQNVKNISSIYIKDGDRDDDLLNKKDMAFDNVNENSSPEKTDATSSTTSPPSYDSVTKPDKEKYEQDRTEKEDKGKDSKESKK
On to `CS(=O)(=O)NC(=O)c1ccc(Oc2ccc(Cl)cc2)c(-c2ccncc2)c1` [Example 21, 4-(4-chlorophenoxy)-N-(methylsulfonyl)-3-pyridin-4-ylbenzamide], for which the IC50 is 4600 nM.

On to `CS(=O)(=O)NC(=O)c1ccc(Oc2ccc(Cl)cc2)c(-c2cncnc2)c1` [Example 23, 4-(4-chlorophenoxy)-N-(methylsulfonyl)-3-pyrimidin-5-ylbenzamide], for which the IC50 is 2800 nM.

On to `CS(=O)(=O)NC(=O)c1ccc(Oc2ccc(Cl)cc2)c(-c2ccccc2OC(F)(F)F)c1` [Example 24, 6-(4-chlorophenoxy)-N-(methylsulfonyl)-2′-(trifluoromethoxy)biphenyl-3-carboxamide], for which the IC50 is 500 nM.

Regarding `Cn1nccc1-c1cc(C(=O)NS(C)(=O)=O)ccc1Oc1ccc(Cl)cc1` [Example 27, 4-(4-chlorophenoxy)-3-(1-methyl-1H-pyrazol-5-yl)-N-(methylsulfonyl)benzamide], the IC50 is greater than 3000 nM.

`COc1cccc(-c2cc(C(=O)NS(C)(=O)=O)ccc2Oc2ccc(Cl)cc2)c1` [Example 29, 6-(4-chlorophenoxy)-3′-methoxy-N-(methylsulfonyl)-biphenyl-3-carboxamide]: the IC50 is 570 nM.

Regarding `CS(=O)(=O)NC(=O)c1ccc(Oc2ccc(Cl)cc2)c(-c2ccccc2Cl)c1` [Example 31, 2′-chloro-6-(4-chlorophenoxy)-N-(methylsulfonyl)-biphenyl-3-carboxamide], the IC50 is 270 nM.

As for `CCOc1ccccc1-c1cc(C(=O)NS(C)(=O)=O)ccc1Oc1ccc(Cl)cc1` [Example 32, 6-(4-chlorophenoxy)-2′-ethoxy-N-(methylsulfonyl)-biphenyl-3-carboxamide], the IC50 is 120 nM.

Consider `CS(=O)(=O)NC(=O)c1ccc(Oc2ccc(Cl)cc2)c(-c2ccccc2C#N)c1` [Example 33, 6-(4-chlorophenoxy)-2′-cyano-N-(methylsulfonyl)-biphenyl-3-carboxamide], for which the IC50 was 290 nM.

Consider `Cc1cc(-c2cc(C(=O)NS(C)(=O)=O)ccc2Oc2ccc(Cl)cc2)ccn1` [Example 34, 4-(4-chlorophenoxy)-3-(2-methylpyridin-4-yl)-N-(methylsulfonyl)benzamide], for which the IC50 was 8600 nM.

On to `CS(=O)(=O)NC(=O)c1ccc(Oc2ccc(Cl)cc2)c(-c2ccccc2C(F)(F)F)c1` [Example 35, 6-(4-chlorophenoxy)-N-(methylsulfonyl)-2′-(trifluoromethyl)biphenyl-3-carboxamide], for which the IC50 is 8000 nM.

On to `COc1ncc(-c2cc(C(=O)NS(C)(=O)=O)ccc2Oc2ccc(Cl)cc2)cc1F` [Example 36, 4-(4-chlorophenoxy)-3-(5-fluoro-6-methoxypyridin-3-yl)-N-(methylsulfonyl)benzamide], for which the IC50 was 3900 nM.

With `CS(=O)(=O)NC(=O)c1ccc(Oc2ccc(Cl)cc2)c(-c2ccc(Cl)cn2)c1` [Example 37, 4-(4-chlorophenoxy)-3-(5-chloropyridin-2-yl)-N-(methylsulfonyl)benzamide], the IC50 was 340 nM.

As to `Cc1ccc(-c2cc(C(=O)NS(C)(=O)=O)ccc2Oc2ccc(Cl)cc2)cn1` [Example 38, 4-(4-chlorophenoxy)-3-(6-methylpyridin-3-yl)-N-(methylsulfonyl)benzamide], the IC50 is greater than 3000 nM.

In the case of `CS(=O)(=O)NC(=O)c1ccc(Oc2ccc(Cl)cc2)c(-c2ccc(C#N)nc2)c1` [Example 39, 4-(4-chlorophenoxy)-3-(6-cyanopyridin-3-yl)-N-(methylsulfonyl)benzamide], the IC50 was 1100 nM.

With `CCCn1cc(-c2cc(C(=O)NS(C)(=O)=O)ccc2Oc2ccc(Cl)cc2)cn1` [Example 41, 4-(4-chlorophenoxy)-N-(methylsulfonyl)-3-(1-propyl-1H-pyrazol-4-yl)benzamide], the IC50 is greater than 3000 nM.

For `COc1ccc(-c2cc(C(=O)NS(C)(=O)=O)ccc2Oc2ccc(Cl)cc2)c(C)n1` [Example 42, 4-(4-chlorophenoxy)-3-(6-methoxy-2-methylpyridin-3-yl)-N-(methylsulfonyl)benzamide], the IC50 is 7500 nM.

Consider `CS(=O)(=O)NC(=O)c1ccc(Oc2ccc(Cl)cc2)c(-c2ccc(C(F)(F)F)cc2)c1` [Example 43, 6-(4-chlorophenoxy)-N-(methylsulfonyl)-4′-(trifluoromethyl)biphenyl-3-carboxamide], for which the IC50 was 630 nM.

With `COc1cc(-c2cc(C(=O)NS(C)(=O)=O)ccc2Oc2ccc(Cl)cc2)ccn1` [Example 45, 4-(4-chlorophenoxy)-3-(2-methoxypyridin-4-yl)-N-(methylsulfonyl)benzamide], the IC50 is 2000 nM.

On to `COc1ncccc1-c1cc(C(=O)NS(C)(=O)=O)ccc1Oc1ccc(Cl)cc1` [Example 47, 4-(4-chlorophenoxy)-3-(2-methoxypyridin-3-yl)-N-(methylsulfonyl)benzamide], for which the IC50 is 92 nM.

Regarding `Cn1cc(-c2cc(C(=O)NS(C)(=O)=O)ccc2Oc2ccc(Cl)cc2)cn1` [Example 48, 4-(4-chlorophenoxy)-3-(1-methyl-1H-pyrazol-4-yl)-N-(methylsulfonyl)benzamide], the IC50 is 9800 nM.

Consider `CS(=O)(=O)NC(=O)c1ccc(Oc2ccc(Cl)cc2)c(-c2cnc(N)nc2)c1` [Example 49, 3-(2-aminopyrimidin-5-yl)-4-(4-chlorophenoxy)-N-(methylsulfonyl)benzamide], for which the IC50 is greater than 3000 nM.

With `COc1ccc(-c2cc(C(=O)NS(C)(=O)=O)ccc2Oc2ccc(Cl)cc2)cc1` [Example 50, 6-(4-chlorophenoxy)-4′-methoxy-N-(methylsulfonyl)-biphenyl-3-carboxamide], the IC50 was 730 nM.

Take `COc1ncccc1-c1cc(C(=O)NS(C)(=O)=O)ccc1Oc1ccccc1F` [Example 51, 4-(2-fluorophenoxy)-3-(2-methoxypyridin-3-yl)-N-(methylsulfonyl)benzamide]: the IC50 was 1700 nM.

Regarding `COc1ncccc1-c1cc(C(=O)NS(C)(=O)=O)ccc1Oc1cccc(Cl)c1` [Example 52, 4-(3-chlorophenoxy)-3-(2-methoxypyridin-3-yl)-N-(methylsulfonyl)benzamide], the IC50 is 460 nM.

For the compound `COc1ncccc1-c1cc(C(=O)NS(C)(=O)=O)ccc1Oc1cc(F)cc(Cl)c1` [Example 53, 4-(3-chloro-5-fluorophenoxy)-3-(2-methoxypyridin-3-yl)-N-(methylsulfonyl)benzamide], the IC50 is 120 nM.

As for `COc1ncccc1-c1cc(C(=O)NS(C)(=O)=O)ccc1Oc1cccc(C(C)C)c1` [Example 54, 4-(3-isopropylphenoxy)-3-(2-methoxypyridin-3-yl)-N-(methylsulfonyl)benzamide], the IC50 was 120 nM.

`COc1ncccc1-c1cc(C(=O)NS(C)(=O)=O)ccc1Oc1ccc(F)c(F)c1` [Example 55, 4-(3,4-difluorophenoxy)-3-(2-methoxypyridin-3-yl)-N-(methylsulfonyl)benzamide]: the IC50 was 440 nM.

In the case of `COc1ncccc1-c1cc(C(=O)NS(C)(=O)=O)ccc1Oc1ccc(C#N)cc1` [Example 56, 4-(4-cyanophenoxy)-3-(2-methoxypyridin-3-yl)-N-(methylsulfonyl)benzamide], the IC50 was 2400 nM.

For the compound `COc1cc(Cl)cc(Oc2ccc(C(=O)NS(C)(=O)=O)cc2-c2cccnc2OC)c1` [Example 57, 4-(3-chloro-5-methoxyphenoxy)-3-(2-methoxypyridin-3-yl)-N-(methylsulfonyl)benzamide], the IC50 is 660 nM.

Regarding `COc1ncccc1-c1cc(C(=O)NS(C)(=O)=O)ccc1Oc1ccccc1OC(F)(F)F` [Example 58, 3-(2-methoxypyridin-3-yl)-N-(methylsulfonyl)-4-[2-(trifluoromethoxy)phenoxy]benzamide], the IC50 is greater than 1000 nM.

Source of the values: patent US8772343B2, “Chemical compounds” (Pfizer Limited, priority 2010, dated 2014).
